Measurements taken from publication PMC6311893, “Computational prediction of plasma protein binding of cyclic peptides from small molecule experimental data using sparse modeling techniques” (BMC Bioinformatics, 2018).
Positions of bridges follow the written chain, without caps; N, C: chain ends. Residues, ends and D or L forms follow the SMILES beside them.

Experiments:
in vitro = in vitro ADME; settings: human, plasma, Exp. PPB (fb*)
Protocol: (§1) As the number of publicly available data of cyclic peptide drugs is small compared to that of small molecule, we additionally designed and experimented with 16 cyclic peptides composed exclusively of natural amino acids. First, linear peptides were synthesized. Then, circularization was achieved by making a disulfide bond between N-terminal and C-terminal cysteine residues and confirmed by TOF/MS and HPLC analyses. Human PPB values fb were determined by the equilibrium dialysis method. Frozen human plasma was thawed immediately at room temperature. Then, the plasma was centrifuged at 3220 g for 10 min to remove clots and the supernatant was collected into a fresh tube. The working solutions of test compounds were prepared in DMSO at a concentration of 200 μM. Then, 3 μL of the working solution was removed for mixing with 597 μL of human plasma to achieve a final concentration of 1 μM (0.5% DMSO). The plasma samples were vortexed thoroughly. The dialysis membranes (HTD 96a/b Dialysis Membrane Strips MWCO 12-14 K, Cat. #1101, Batch# 1141 (12–17)) were soaked in ultrapure water for 60 min to separate the strips, then in 20% ethanol for 20 min, and finally in the dialysis buffer (100 mM sodium phosphate and 150 mM NaCl) for 20 min. The dialysis apparatus was assembled according to the manufacturer’s instructions. Each cell was filled with the spiked plasma sample and dialyzed against equal volume of the dialysis buffer. The assay was performed in duplicate. The dialysis plate was sealed and incubated in an incubator at 37 °C with 5% CO2 at 100 rpm for 6 h. At the end of incubation, the seal was removed and 50 μL of samples from both buffer and plasma chambers were transferred to wells of a 96-well plate. 50 μL of blank plasma was added to each buffer sample and an equal volume of phosphate buffered saline was supplemented to the collected plasma sample. […] Samples in the plate were vortexed for 5 min and centrifuged at 3220 g for 30 min at 4 °C. Then, the supernatant was transferred to a new 96-well plate with 100 μL or 200 μL water (depending on the LC-MS signal response and peak shape) for LC-MS/MS analysis.

human plasma = assay: in vitro; type: in vitro ADME; settings: 6 h, 1 μM
Protocol: as §1

| fraction unbound at 6 h, 1 μM (in vitro) | Exp. PPB (fb*) (human plasma) | SMILES |
| --- | --- | --- |
| 0.76 | 0.242 | N=C(N)NCCC[C@@H]1NC(=O)[C@@H]2CCCN2C(=O)[C@H](CC(N)=O)NC(=O)[C@H](CCC(N)=O)NC(=O)[C@H](Cc2ccccc2)NC(=O)[C@H](Cc2ccc(O)cc2)NC(=O)[C@@H](N)CSSC[C@@H](C(=O)O)NC(=O)CNC1=O [Pep.1] (H-CYFQNPRGC-OH; disulfide 1-9) |
| 0.145 | – | N[C@H]1CSSC[C@@H](C(=O)O)NC(=O)[C@H](Cc2ccc(O)cc2)NC(=O)[C@H](Cc2ccc(O)cc2)NC(=O)[C@H](Cc2ccc(O)cc2)NC(=O)[C@H](Cc2ccc(O)cc2)NC(=O)[C@H](Cc2ccc(O)cc2)NC(=O)[C@H](Cc2ccc(O)cc2)NC(=O)[C@H](Cc2ccc(O)cc2)NC1=O [Pep.8] (H-CYYYYYYYC-OH; disulfide 1-9; N-terminus and C-terminus assumed) |
| 1 | – | CC(C)C[C@@H]1NC(=O)CNC(=O)[C@H](C)NC(=O)[C@@H](N)CSSC[C@@H](C(=O)O)NC(=O)[C@H](C)NC(=O)[C@H](C)NC(=O)[C@H](CC(C)C)NC(=O)[C@H](C(C)C)NC1=O [Pep.9] (H-CAGLVLAAC-OH; disulfide 1-9; N-terminus and C-terminus assumed) |
| 0.633 | – | CC(C)[C@@H]1NC(=O)[C@H](Cc2c[nH]c3ccccc23)NC(=O)[C@@H](N)CSSC[C@@H](C(=O)O)NC(=O)[C@H](CCC(=O)O)NC(=O)[C@H](Cc2ccccc2)NC(=O)[C@H](CCC(N)=O)NC(=O)[C@@H]2CCCN2C(=O)[C@H](Cc2c[nH]cn2)NC1=O [Pep.10] (H-CWVHPQFEC-OH; disulfide 1-9; N-terminus and C-terminus assumed) |
| 1 | – | NC(=O)CC[C@@H]1NC(=O)[C@H](Cc2c[nH]c3ccccc23)NC(=O)[C@@H]2CCCN2C(=O)[C@H](CCC(N)=O)NC(=O)[C@H](CC(N)=O)NC(=O)[C@@H](N)CSSC[C@@H](C(=O)O)NC1=O [Pep.11] (H-CNQPWQC-OH; disulfide 1-7; N-terminus and C-terminus assumed) |
| 0.2 | – | CC(C)C[C@@H]1NC(=O)[C@H](Cc2c[nH]c3ccccc23)NC(=O)[C@H](CC(=O)O)NC(=O)[C@H](CC(=O)O)NC(=O)[C@H](Cc2ccccc2)NC(=O)[C@H](CO)NC(=O)[C@@H](N)CSSC[C@@H](C(=O)O)NC(=O)[C@H](C)NC1=O [Pep.12] (H-CSFDDWLAC-OH; disulfide 1-9; N-terminus and C-terminus assumed) |
| 0.651 | – | CC(C)C[C@@H]1NC(=O)[C@H](Cc2ccc(O)cc2)NC(=O)[C@@H](N)CSSC[C@@H](C(=O)O)NC(=O)CNC(=O)[C@H](Cc2c[nH]cn2)NC(=O)[C@H](Cc2ccc(O)cc2)NC(=O)[C@H](CCC(=O)O)NC(=O)[C@H](C)NC1=O [Pep.13] (H-CYLAEYHGC-OH; disulfide 1-9; N-terminus and C-terminus assumed) |
| 0.926 | – | C[C@@H]1NC(=O)[C@H](Cc2c[nH]c3ccccc23)NC(=O)[C@H](C)NC(=O)[C@@H]2CCCN2C(=O)[C@H](C)NC(=O)[C@@H](N)CSSC[C@@H](C(=O)O)NC(=O)CNC(=O)[C@H](Cc2c[nH]cn2)NC1=O [Pep.14] (H-CAPAWAHGC-OH; disulfide 1-9; N-terminus and C-terminus assumed) |
| 0.847 | – | CC(C)[C@@H]1NC(=O)[C@H](C)NC(=O)[C@H](CO)NC(=O)[C@H](Cc2ccc(O)cc2)NC(=O)[C@H](C(C)C)NC(=O)[C@H](Cc2ccccc2)NC(=O)[C@@H](N)CSSC[C@@H](C(=O)O)NC1=O [Pep.15] (H-CFVYSAVC-OH; disulfide 1-8; N-terminus and C-terminus assumed) |
| 0.849 | – | CC[C@H](C)[C@@H]1NC(=O)[C@H](CCCNC(=N)N)NC(=O)[C@@H](N)CSSC[C@@H](C(=O)O)NC(=O)[C@H](Cc2ccc(O)cc2)NC(=O)[C@H](CCCNC(=N)N)NC(=O)[C@H](CCCCN)NC1=O [Pep.16] (H-CRIKRYC-OH; disulfide 1-7; N-terminus and C-terminus assumed) |
